From patent publication US9096544B2, “Therapeutic compounds” (Wayne State University, priority 2009, dated 2015) come the findings set out here.

The test system of series [1] is FFMA-AML cells. Kind of series: Test D: inhibition of FFMA-AML growth in NOD-SCID mice (survival). Type of series: in vivo. The procedure:
FIG. 6 illustrates 3-Cl-AHPC and compound 16 inhibition of FFMA-AML cell proliferation in NOD-SCID mice and prolongation of their survival. A) Sixteen NOD-SCID mice, which had been randomized into two groups of eight each, were injected through the tail vein with 1×10^6 FFMA-AML cells. Intravenous injection of vehicle or 3-Cl-AHPC (30 mg/kg) twice daily for 4 days was instituted 24 h later. B) An identical study was performed with the exception that 3-Cl-AHPC was administered interperitoneally. C) Twenty four NOD-SCID mice were randomized into three groups of eight. […] The mice were monitored for toxicity and survival.
Non-obese diabetic-severe combined immunodeficiency (NOD-SCID) and ICR-SCID mice were obtained from Jackson Laboratories (Bar Harbor, Me.) and Taconic Farms (Germantown, N.Y.), respectively. A) FFMA-AML and TF(v-SRC) systemic models: NOD-SCID and ICR-SCID mice (4 to 5 weeks old) were injected with either FFMA-AML or TF(v-SRC) cells intravenously. Treatment with either vehicle, 3-Cl-AHPC or compound 16 (the compound of Example 1) was instituted the following day. Once symptoms such as diarrhea, dehydration, weight loss, ascites, paralysis or general weakness became evident, mice were euthanized. B) TF(v-SRC) subcutaneous mouse model. ICR-SCID mice were trocared subcutaneously bilaterally with TF(v-SRC) tumor fragments. Animals with equal tumor weights determined as described previously (Zhang Y. et al., Blood. 2002; 100:2917-2925) were assigned to three experimental arms: 1) control (vehicle treated), 2) subcutaneously treated with compound 16, and 3) intravenously treated with compound 16. The percent increase in the host life-span (% ILS) of the FFMA-AML and TF(v-SRC) bearing mice was calculated by subtracting the […] divided by the median day of death of the AML-bearing vehicle treated mice. In order to determine the efficacy of the 3-Cl-AHPC and compound 16, survival distribution of the 3-Cl-AHPC or compound 16-treated (T) or vehicle (C) groups were compared using the log-rank test. Survival was characterized as the duration of the animal's life span 24 h after the initiation of the xenograft until an observed event (euthanasia or death). A p-value of less than 5% (p<0.05) was considered statistically significant.
The ability of 3-Cl-AHPC and compound 16 to inhibit the growth of FFMA-AML cells in NOD-SCID mice was determined. NOD-SCID mice randomly assigned to two groups of eight mice each were injected with 1 million cells through the tail vein. The mice then received either vehicle or 3-Cl-AHPC (30 mg/kg) given intravenously twice daily for 4 days. […]

The test system of series [2] is pancreatic cancer stem cells (CD44+/CD24+ cells obtained from PANC-1, Capan-2 and MiaPaCa-2 cells). Kind of series: Test J: spheroid formation by CD44+/CD24+ pancreatic cancer stem cells. The class given is cell-based. The procedure:
Apoptosis and Growth Inhibition of Pancreatic Cancer Stem Cells (Obtained from PANC-1, Capan-2 and MiaPaCa-2 Cells) by Compound 16 and 3-Cl-AHPC.
Cells were grown to 70-80% confluence and then trypsinised and washed with sorting buffer (1×PBS, 5% FCS). The cells were resuspended with […] sorting buffer and incubated with 15-20 μl anti-CD24-FITC, anti-CD44-PE primary antibodies for 30 min at ice. The cells were washed and resuspended in 500 μl of sorting buffer and sorted using FACSAria system (BD Immunocytochemistry Systems, Franklin lakes, NJ).
The sorted CD44^+/CD24^+ cells were suspended in serum-free stem cell medium containing DMEM/F12 (1:1) supplemented with B27 (Life Technologies, Gaithersburg, Md.), 20 ng/ml EGF (Biomol International, Plymouth, Pa.)), 20 ng/ml fibroblast growth factor (Biomol International, Plymouth, Pa.), and 100 μg/ml gentamycin. Approximately 150-200 cells per well were seeded in an ultra low-attachment 96-well plate (Corning Inc, Lowell, Mass.). 3-Cl-AHPC and compound 16 were added the day after cells were plated or after 7 days of spheroid formation. Spheriods were photographed and measured utilizing a Olympus microscope (OLYMPUS CKX41) and Olympus microscope digital camera with DP2-BSW software (Olympus soft imaging solutions GmbH, Germany).

For series [3], the system named is caspase-3. Briefly: Caspase-3 activation and cleavage in AML cells. Type of series: cell-based. The note with it: FFMA-AML and TF(vSRC) cells; 1 μM; lysates. The procedure:
FIG. 4 illustrates 3-Cl-AHPC and compound 16-mediated caspase-3 activation and cleavage of caspase-3. A) Activation of caspase-3 in FFMA-AML and TF(vSRC) cells following exposure to 1 μM 3-Cl-AHPC and compound 16 for varying times. B) Generation of the caspase-3 (17 kDa) fragment and caspase-3 protein levels (α-tubulin used as loading control). Columns represent mean of three independent experiments. […] (p value is <0.01 as determined by t test).
To further document 3-Cl-AHPC and compound 16-mediated apoptosis in the FFMA-AML and TF(v-SRC) cells, cells were exposed to 1 μM 3-Cl-AHPC or compound 16 for varying times, and then annexin V-FITC binding assessed using flow cytometry.

Series [4] deals with Capan-2 cells. Kind of series: Test I: apoptosis of Capan-2 pancreatic cancer cells (Annexin V-FITC/PI). Type of series: cell-based. The note with it: 1 μM, 48 h. The method, then:
(§1) Pancreatic cancer cell lines (COLO357, PANC-1, Capan-2, AsPc-1 cells and MiaPaCa-2 cells obtained from American Type Culture Collection; ATCC, Rockville, Md.) were treated with 1 μM 3-Cl-AHPC and compound 16 for various times. Apoptosis in cells were analyzed by flow cytometry using Annexin V-FITC binding together with propidium iodide (PI) staining (Annexin V-FITC apoptosis Detection Kit 1, BD Biosciences, San Diego, Calif.). Data acquisition was done on a FACS Calibur flow cytometer (BD) and analyzed with CellQuest software (BD Biosciences). 3-Cl-AHPC and compound 16 mediated inhibition of cell growth were determined by 3-(4,5-dimethylthiazol-2-yl)-2,5-diphenyltetrazolium bromide (MTT) assay. The cells were seeded on 96-well plates at a density of 4×10^4 cells/well in a volume of 200 μl culture medium. 1 μM AHP3 and 3-Cl-AHPC in DMSO (final concentration 0.1%) were added to the cells for various times. […] After discarding the medium, MTT precipitates were solubilized with 200 μl DMSO and the plates read on a BioTeK Synergy HT (BioTeK Instrument Inc., Vermont) at an absorbance 570 nm. […] The spheroids were stained with acridine orange/ethidium bromide staining and immediately visualized and photographed with fluorescence microscope (OLYMPUS CKX41). […] Then spheroids were visualized and photographed with a fluorescence microscope.

In series [5] the test system is AsPc-1 cells. Briefly: Test I: apoptosis of AsPc-1 pancreatic cancer cells (Annexin V-FITC/PI). The note with it: 1 μM, 72 h. Type of series: cell-based. The procedure: as §1

SMILES strings stand for the structures.

Turning to `O=C(O)C=Cc1ccc(-c2ccc(O)c(C34CC5CC(CC(C5)C3)C4)c2)c(Cl)c1` [Compound 3-Cl-AHPC, 4-[3-(1-adamantyl)-4-hydroxyphenyl]-3-chlorocinnamic acid, reference compound], in series [1] (30 mg/kg intravenously twice daily for 4 days, p value 0.0001), the “increase in the length of survival over vehicle” value came out at 25%. For the same molecule, the “toxicity in treated mice” value in series [1] (3-Cl-AHPC 30 mg/kg twice daily for 4 days) was “toxicity including weight loss and decreased physical activity”. The “spheroid formation by CD24+/CD44+ cells” value in series [2] is “inhibited their ability to form spheroids”. Besides, in series [3], the “caspase-3 activation (17-kDa cleaved caspase-3, caspase-3 activity)” value is on record as “induced caspase-3 activation”. In series [4], the “cells in which induction of apoptosis was noted” value came out at 50%. In addition, the induction of apoptosis result in series [5] is “Apoptosis was also noted”.
`O=C(O)/C=C/c1cnc(-c2ccc(O)c(C34CC5CC(CC(C5)C3)C4)c2)nc1` [Compound 16, (E)-3-[2-(3-(1-Adamantyl)-4-hydroxyphenyl)-5-pyrimidinyl]-2-propenoic acid]: the “increase in survival (ILS)” value in series [1] (5.0 mg/kg or 7.5 mg/kg twice a day for 4 days, tail vein, p=0.0002) amounted to 26%. The “toxicity in treated mice” value in series [1] (compound 16 5.0 or 7.5 mg/kg twice a day) was “extremely well tolerated and no toxicity was noted”. The “spheroid formation by CD24+/CD44+ cells” value in series [2] is “inhibited their ability to form spheroids”. In addition, the “caspase-3 activation (17-kDa cleaved caspase-3, caspase-3 activity)” value in series [3] is on record as “induced caspase-3 activation”. In series [4], the “cells in which induction of apoptosis was noted” value amounted to 50%. For the same molecule, the induction of apoptosis result in series [5] is recorded as “Apoptosis was also noted”.
